Assay results as given in ChEMBL document CHEMBL3864142, “Allicin-inspired thiolated fluoroquinolones as antibacterials against ESKAPE pathogens” (2016).
Values after ≈ are worked out from the molar mass of the structure shown. Active and inactive are the calls of the source. The rule behind the calls is not given here.

Columns and labels:
[1] = test system: Staphylococcus aureus; assay: Antibacterial activity against methicillin-susceptible Staphylococcus aureus ATCC 29213 at 10 uM by disc diffusion method; assay type: functional; settings: read-out: DIZ
[2] = test system: Klebsiella pneumoniae; assay: Antibacterial activity against ESBL-producer Klebsiella pneumoniae K6 700603 at 10 uM by disc diffusion method; assay type: functional; settings: read-out: DIZ
[3] = test system: Pseudomonas aeruginosa; assay: Antibacterial activity against Pseudomonas aeruginosa ATCC 15442 at 10 uM by disc diffusion method; assay type: functional; settings: read-out: DIZ
[4] = Antibacterial activity against vancomycin-intermediate resistant Staphylococcus aureus Mu50 ATCC 700699 at 10 uM by disc diffusion method; assay type: functional, Staphylococcus aureus subsp. aureus Mu50; settings: read-out: DIZ
[5] = test system: Staphylococcus epidermidis; assay: Antibacterial activity against Staphylococcus epidermidis ATCC 14990 at 10 uM by disc diffusion method; assay type: functional; settings: read-out: DIZ
[6] = test system: Staphylococcus aureus; assay: Antibacterial activity against methicillin-resistant Staphylococcus aureus BAA-1747 at 10 uM by disc diffusion method; assay type: functional; settings: read-out: DIZ
[7] = Antibacterial activity against Bacillus anthracis Sterne 34F2 at 10 uM by disc diffusion method; assay type: functional, Bacillus anthracis str. Sterne; settings: read-out: DIZ
[8] = test system: Acinetobacter baumannii; assay: Antibacterial activity against ciprofloxacin-resistant Acinetobacter baumannii BAA-1605 at 10 uM by disc diffusion method; assay type: functional; settings: read-out: DIZ
[9] = test system: Enterococcus faecalis; assay: Antibacterial activity against vancomycin-susceptible Enterococcus faecalis ATCC 29212 at 10 uM by disc diffusion method; assay type: functional; settings: read-out: DIZ
[10] = test system: Acinetobacter baumannii; assay: Antibacterial activity against Acinetobacter baumannii ATCC 19606 at 10 uM by disc diffusion method; assay type: functional; settings: read-out: DIZ
[11] = test system: Enterococcus faecium; assay: Antibacterial activity against vancomycin-resistant Enterococcus faecium ATCC 700221 at 10 uM by disc diffusion method; assay type: functional; settings: read-out: DIZ
[12] = test system: Enterobacter cloacae; assay: Antibacterial activity against Enterobacter cloacae ATCC 23355 at 10 uM by disc diffusion method; assay type: functional; settings: read-out: DIZ
[13] = test system: Staphylococcus aureus; assay: Induction of reactive oxygen species formation in Staphylococcus aureus at 25 uM after 0.5 hrs by DCFH-DA probe-based fluorometric assay relative to control; assay type: functional
[14] = Antibacterial activity against vancomycin-intermediate resistant Staphylococcus aureus Mu50 ATCC 700699 by broth microdilution method; assay type: functional, Staphylococcus aureus subsp. aureus Mu50
[15] = test system: Staphylococcus aureus; assay: Bactericidal activity against methicillin-susceptible Staphylococcus aureus ATCC 29213 by broth microdilution method; assay type: functional
[16] = test system: Staphylococcus aureus; assay: Ratio of MBC to MIC for methicillin-resistant Staphylococcus aureus BAA-1747; assay type: functional
[17] = test system: Staphylococcus aureus; assay: Antibacterial activity against Staphylococcus aureus after overnight incubation in presence of antioxidant vitamin E by double-diffusion assay; assay type: functional
[18] = test system: Staphylococcus aureus; assay: Ratio of MBC to MIC for vancomycin-intermediate resistant Staphylococcus aureus Mu50 ATCC 700699; assay type: functional
[19] = test system: Staphylococcus aureus; assay: Ratio of MBC to MIC for methicillin-susceptible Staphylococcus aureus ATCC 29213; assay type: functional
[20] = test system: Staphylococcus aureus; assay: Antibacterial activity against Staphylococcus aureus after overnight incubation in presence of GSH by double-diffusion assay; assay type: functional
[21] = test system: Staphylococcus aureus; assay: Bactericidal activity against methicillin-resistant Staphylococcus aureus BAA-1747 by broth microdilution method; assay type: functional
[22] = test system: Staphylococcus aureus; assay: Antibacterial activity against methicillin-resistant Staphylococcus aureus BAA-1747 by broth microdilution method; assay type: functional
[23] = test system: Staphylococcus aureus; assay: Antibacterial activity against methicillin-susceptible Staphylococcus aureus ATCC 29213 by broth microdilution method; assay type: functional
[24] = Glutathione reactivity assessed as formation of S-(propylthio)glutathione and ciprofloxacin at 1 uM after 2 hrs by ESI-positive MS method
[25] = Bactericidal activity against vancomycin-intermediate resistant Staphylococcus aureus Mu50 ATCC 700699 by broth microdilution method; assay type: functional, Staphylococcus aureus subsp. aureus Mu50

| Structure (SMILES) | zone of inhibition at 10 µM [1] | zone of inhibition at 10 µM [2] | zone of inhibition at 10 µM [3] | zone of inhibition at 10 µM [4] | zone of inhibition at 10 µM [5] | zone of inhibition at 10 µM [6] | zone of inhibition at 10 µM [7] | zone of inhibition at 10 µM [8] | zone of inhibition at 10 µM [9] | zone of inhibition at 10 µM [10] | zone of inhibition at 10 µM [11] | zone of inhibition at 10 µM [12] | also measured |
| --- | --- | --- | --- | --- | --- | --- | --- | --- | --- | --- | --- | --- | --- |
| O=C(O)c1cn(C2CC2)c2cc(N3CCN(Sc4ccccc4[N+](=O)[O-])CC3)c(F)cc2c1=O | 18 mm | 9 mm | 9 mm | 0 mm | 23 mm | 19 mm | 27 mm | 0 mm | 20 mm | 19 mm | 0 mm | 19 mm |  |
| CCCCSN1CCN(c2cc3c(cc2F)c(=O)c(C(=O)O)cn3C2CC2)CC1 | 22 mm | 21 mm | 28 mm | 11 mm | 34 mm | 20 mm | 37 mm | 0 mm | 23 mm | 22 mm | 0 mm | 25 mm |  |
| CCCSN1CCN(c2cc3c(cc2F)c(=O)c(C(=O)O)cn3C2CC2)CC1 | 29 mm | 25 mm | 32 mm | 11 mm | 37 mm | 24 mm | 38 mm | 0 mm | 28 mm | 27 mm | 0 mm | 29 mm | fold change (FC) [13]: 2 - 3; MIC [14]: 50 µM (≈ 20.3 µg/mL); MBC [15]: 0.2 µM (≈ 0.0811 µg/mL); Ratio [16]: 1; Activity [17]: Active; Ratio [18]: 1; Ratio [19]: 2; Activity [20]: Active; MBC [21]: 1.56 µM (≈ 0.633 µg/mL); MIC [22]: 1.56 µM (≈ 0.633 µg/mL); MIC [23]: 0.1 µM (≈ 0.0405 µg/mL); Drug metabolism [24]: Metabolite detected; MBC [25]: 50 µM (≈ 20.3 µg/mL) |
| CC(C)SN1CCN(c2cc3c(cc2F)c(=O)c(C(=O)O)cn3C2CC2)CC1 | 21 mm | 23 mm | 31 mm | 10 mm | 34 mm | 23 mm | 36 mm | 0 mm | 23 mm | 23 mm | 0 mm | 25 mm |  |
| O=C(O)c1cn(C2CC2)c2cc(N3CCNCC3)c(F)cc2c1=O [CIPROFLOXACIN] | 23 mm | 22 mm | 29 mm | 9 mm |  | 20 mm | 34 mm | 0 mm | 22 mm | 23 mm | 0 mm |  | fold change (FC) [13]: 2 - 3; MIC [14]: 50 µM (≈ 16.6 µg/mL); MBC [15]: 0.78 µM (≈ 0.258 µg/mL); Activity [17]: Active; Activity [20]: Active; MBC [21]: 3.13 µM (≈ 1.04 µg/mL); MIC [22]: 1.56 µM (≈ 0.517 µg/mL); MIC [23]: 0.1 µM (≈ 0.0331 µg/mL); MBC [25]: 50 µM (≈ 16.6 µg/mL) |
| CC(C)C(C)SN1CCN(c2cc3c(cc2F)c(=O)c(C(=O)O)cn3C2CC2)CC1 (stereo not given) | 28 mm | 26 mm | 31 mm | 9 mm | 29 mm | 23 mm | 32 mm | 0 mm | 25 mm | 26 mm | 0 mm | 29 mm |  |
| CSN1CCN(c2cc3c(cc2F)c(=O)c(C(=O)O)cn3C2CC2)CC1 | 24 mm | 22 mm | 29 mm | 11 mm | 33 mm | 23 mm | 36 mm | 10 mm | 21 mm | 23 mm | 0 mm | 23 mm |  |
| CN[C@H](CC(C)C)C(=O)N[C@H]1C(=O)N[C@@H](CC(N)=O)C(=O)N[C@H]2C(=O)N[C@H]3C(=O)N[C@H](C(=O)N[C@H](C(=O)O)c4cc(O)cc(O)c4-c4cc3ccc4O)[C@H](O)c3ccc(c(Cl)c3)Oc3cc2cc(c3O[C@@H]2O[C@H](CO)[C@@H](O)[C@H](O)[C@H]2O[C@H]2C[C@](C)(N)[C@H](O)[C@H](C)O2)Oc2ccc(cc2Cl)[C@H]1O [VANCOMYCIN] |  |  |  |  |  |  |  |  |  |  |  |  | MIC [14]: 0.78 µM (≈ 1.13 µg/mL); MBC [15]: 0.1 µM (≈ 0.145 µg/mL); Ratio [16]: 1; Ratio [18]: 1; Ratio [19]: 1; MBC [21]: 0.1 µM (≈ 0.145 µg/mL); MIC [22]: 0.1 µM (≈ 0.145 µg/mL); MIC [23]: 0.1 µM (≈ 0.145 µg/mL); MBC [25]: 0.78 µM (≈ 1.13 µg/mL) |
| O=C(O)c1cn(C2CC2)c2cc(N3CCN(Sc4ccc([N+](=O)[O-])cc4)CC3)c(F)cc2c1=O | 29 mm | 21 mm | 27 mm | 11 mm | 36 mm | 24 mm | 32 mm | 0 mm | 25 mm | 23 mm | 8 mm | 23 mm |  |
| O=C(O)c1cn(C2CC2)c2cc(N3CCN(Sc4ccccc4)CC3)c(F)cc2c1=O | 21 mm | 20 mm | 27 mm | 12 mm | 23 mm | 22 mm | 36 mm | 0 mm | 20 mm | 23 mm | 10 mm | 26 mm |  |
| O=C(O)c1cn(C2CC2)c2cc(N3CCN(Sc4ccc(Cl)cc4)CC3)c(F)cc2c1=O | 21 mm | 20 mm | 26 mm | 12 mm | 29 mm | 17 mm | 34 mm | 0 mm | 20 mm | 20 mm | 8 mm | 22 mm |  |
| CCC(C)SN1CCN(c2cc3c(cc2F)c(=O)c(C(=O)O)cn3C2CC2)CC1 (stereo not given) | 24 mm | 20 mm | 27 mm | 11 mm | 32 mm | 23 mm | 35 mm | 0 mm | 22 mm | 22 mm | 8 mm | 23 mm |  |
| CCCCCCSN1CCN(c2cc3c(cc2F)c(=O)c(C(=O)O)cn3C2CC2)CC1 | 18 mm | 16 mm | 23 mm | 9 mm | 26 mm | 18 mm | 30 mm | 0 mm | 15 mm | 15 mm | 8 mm | 19 mm |  |
| CCSN1CCN(c2cc3c(cc2F)c(=O)c(C(=O)O)cn3C2CC2)CC1 | 24 mm | 23 mm | 32 mm | 11 mm | 32 mm | 22 mm | 37 mm | 0 mm | 25 mm | 24 mm | 0 mm | 25 mm |  |
